Where “and” joins values, the source holds several entries; their conditions need not be identical. Equal values may be shown once.

Test [1] has as its system CAL-120. Description: normalised viability (% of control), CellTiter-Blue; higher = more viable cells (about 100 = DMSO control). The following applies: incubation time: 72 h. Here is the method:
(§1)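 DSRT, CellTiter-Blue viability, 72 h incubation. Signal is normalised to DMSO and benzethonium chloride controls. Value is the normalised response at dose 3.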
Background: The colour change of resazurin is a common sign of viable cells or microbes.

The subject of test [2] is CAL-51. The test is described as above. The following applies: incubation time: 72 h. The procedure:
as §1

For test [3], the system named is CAL-85-1. The description is as above. The following applies: incubation time: 72 h. The procedure: as §1
Test [4] has as its system DU-4475. Described as above. Particulars: incubation time: 72 h. Here is the method: as §1
Test [5] has as its system HCC1937. The test is described as above. Particulars: incubation time: 72 h. The procedure:
as §1

Test [6] relates to Hs578T. The test is described as above. Particulars: incubation time: 72 h. Here is the method:
as §1

For test [7], the system named is MDA-MB-468. The description is as above. Particulars: incubation time: 72 h. Here is the method:
as §1

Test [8] has as its system MFM-223. The test is described as above. The following applies: incubation time: 72 h. The procedure: as §1
In a further test the test system is BT-474. As to the kind of experiment: normalised viability (% of control), CellTiter-Blue; higher = more viable cells (about 100 = DMSO control). The following applies: incubation time: 72 h. Put shortly: (§2)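 384-well plates were pre-loaded with compound in 5 µl medium before 20 µl of breast cancer cell suspension was seeded. Following 72 h incubation, 2.5 µl CellTiter-Blue reagent was added for 2 h at 37 °C. Fluorescence was read at 560/590 nm and plates were normalised to vehicle (100) and a positive kill control (0), checked by Z'-factor. Normalised viability is reported at a single listed concentration of the series.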

For the next test, the system named is BT-549. The test is described as above. The following applies: incubation time: 72 h. Put shortly: as §2
Test [9] has as its system CAL-120. The description is as above. Particulars: incubation time: 72 h. Put shortly: as §2
The source holds these as a separate data set.

Another test relates to CAL-148. Described as above. Particulars: incubation time: 72 h. The gist of the method: as §2
For test [10], the system named is CAL-51. The test is described as above. Particulars: incubation time: 72 h. The gist of the method:
as §2
The source holds these as a separate data set.

For test [11], the system named is CAL-85-1. Described as above. Particulars: incubation time: 72 h. Put shortly:
as §2
This is another data set of the same source.

In test [12] the test system is DU-4475. Described as above. Particulars: incubation time: 72 h. The gist of the method:
as §2
The source holds these as a separate data set.

For the next test, the system named is HCC1143. The test is described as above. Particulars: incubation time: 72 h. The gist of the method: as §2
The subject of another test is HCC1599. The test is described as above. The following applies: incubation time: 72 h. Put shortly: as §2
In test [13] the test system is HCC1937. The test is described as above. The following applies: incubation time: 72 h. Put shortly:
as §2
The source holds these as a separate data set.

The test system of test [14] is HDQ-P1. The description is as above. The following applies: incubation time: 72 h. The gist of the method:
as §2

Test [15] deals with Hs578T. The test is described as above. The following applies: incubation time: 72 h. The gist of the method: as §2
This is another data set of the same source.

Test [16] relates to MDA-MB-231. The test is described as above. The following applies: incubation time: 72 h. Put shortly:
as §2

For the next test, the system named is MDA-MB-436. The test is described as above. The following applies: incubation time: 72 h. The gist of the method: as §2
Test [17] deals with MDA-MB-468. The test is described as above. Particulars: incubation time: 72 h. The gist of the method: as §2
This is another data set of the same source.

Test [18] relates to MFM-223. The description is as above. Particulars: incubation time: 72 h. The gist of the method: as §2
This is another data set of the same source.

The subject of test [19] is SK-BR-3. The test is described as above. The following applies: incubation time: 72 h. Put shortly:
as §2

For test [20], the system named is CAL-51. As to the kind of experiment: drug sensitivity score (DSS), CellTiter-Glo (DSS (AUC-based score)); higher = stronger drug effect (viability inhibition or cytotoxicity); extreme values may be limits of the assay. Particulars: incubation time: 72 h. The gist of the method:
(§3)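 In 384-well plates, compound was laid out at 5 concentrations in 10-fold steps over a 10,000-fold range specific to each compound, and breast cancer cell lines were seeded on top in 20 µl suspension for a 72 h incubation. CellTox Green fluorescence and then CellTiter-Glo luminescence were read, and each plate was normalised to 0.1 % DMSO and a positive kill control. The drug sensitivity score was calculated from the area under the fitted dose-response curve.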
Background: Cellular ATP, detected with luciferase, serves as a proxy for viable cell number.

Test [21] has as its system HDQ-P1. Described as above. The following applies: incubation time: 72 h. Put shortly: as §3
Test [22] relates to MDA-MB-453. The test is described as above. Particulars: incubation time: 72 h. The gist of the method: as §3
Test [23] deals with SK-BR-3. The description is as above. Particulars: incubation time: 72 h. The gist of the method:
as §3

Test [24] concerns MDA-MB-231. As to the kind of experiment: normalised viability (% of control), CellTiter-Blue; higher = more viable cells (about 100 = DMSO control). The following applies: 10 nM; incubation time: 72 h. Here is the method: as §1
Test [25] has as its system MDA-MB-453. Description: normalised viability (% of control), CellTiter-Blue; higher = more viable cells (about 100 = DMSO control). Particulars: 3 nM; incubation time: 72 h. Put shortly: as §2

As to `Cc1ccc(NC(=O)c2ccc(CN3CCN(C)CC3)cc2)cc1Nc1nccc(-c2cccnc2)n1` [Imatinib], the normalised viability in the test with CAL-120 [1] (100 nM) is 87.8% and 94.7%; in the test with CAL-51 [2] (10 nM), 106% and 107%; with CAL-85-1 [3] (10 nM), 102% and 92.3%; with DU-4475 [4] (10 nM) it was 106% and 95.3%; in the test on HCC1937 [5] (100 nM) it was 94.5%; in the test on Hs578T [6] (100 nM), 95.2% and 103%. In addition, the normalised viability in the test with MDA-MB-468 [7] (100 nM) was 99.2% and 98%; with MFM-223 [8] (100 nM), 94.8% and 92.4%; with BT-474 (1000 nM), 111%; in the test with BT-549 (1000 nM), 95.8% and 88.7%; in the test with CAL-120 [9] (1000 nM) it was 86.6% and 91.9%; with CAL-148 (30 nM), 89.8% and 88.6%. In addition, the normalised viability with CAL-51 [10] (30 nM) is 106% and 99.3%; in the test on CAL-85-1 [11] (30 nM) it was 91.2% and 88%; with DU-4475 [12] (30 nM), 104% and 85.4%; with HCC1143 (1000 nM), 85.9% and 97%; with HCC1599 (1000 nM), 109% and 102%; in the test with HCC1937 [13] (1000 nM), 80.5% and 85.3%. Moreover, the normalised viability is 89.2% and 107% with HDQ-P1 [14] (30 nM); 100% and 103% in the test on Hs578T [15] (1000 nM); 92.1% and 110% in the test on MDA-MB-231 [16] (1000 nM); 74.6% and 90.3% in the test on MDA-MB-436 (1000 nM); 106% and 109% in the test on MDA-MB-468 [17] (1000 nM); 104% and 100% in the test on MFM-223 [18] (1000 nM). For the same compound, in the test with SK-BR-3 [19] (1000 nM), the normalised viability was 103% and 115%. Moreover, the drug sensitivity score in the test on CAL-51 [20] came out at 1.42; with HDQ-P1 [21], 0; in the test on MDA-MB-453 [22] it was 0.32; in the test with SK-BR-3 [23], 0.

Consider `Nc1nc(OCc2cc(Br)cs2)c2[nH]cnc2n1` [Lomeguatrib], for which the drug sensitivity score in the test on CAL-51 [20], in the test with HDQ-P1 [21], in the test on MDA-MB-453 [22] and in the test on SK-BR-3 [23] was 0 each time.

`Cn1c(=O)n(-c2ccc(C(C)(C)C#N)cc2)c2c3cc(-c4cnc5ccccc5c4)ccc3ncc21` [NVP-BEZ235]: the normalised viability with CAL-120 [1] (10 nM) came to 57.4%; in the test with CAL-51 [2] (1 nM) it was 106%; with CAL-85-1 [3] (1 nM), 110%; in the test with DU-4475 [4] (1 nM), 101%; in the test with HCC1937 [5] (10 nM), 59.9%; with Hs578T [6] (10 nM) it was 56.7%. Besides, the normalised viability with MDA-MB-231 [24] was determined as 72.4%; with MDA-MB-468 [7] (10 nM), 86.6%; in the test with MFM-223 [8] (10 nM), 51.9%; in the test on BT-474 (100 nM), 42.9%; with BT-549 (100 nM), 21.7%; with CAL-120 [9] (100 nM) it was 17.6%. Further, the normalised viability in the test with CAL-148 (3 nM) came out at 93%; with CAL-51 [10] (3 nM) it was 84.7%; with CAL-85-1 [11] (3 nM), 84.5%; in the test with DU-4475 [12] (3 nM), 107%; in the test on HCC1143 (100 nM) it was 37.9%; with HCC1599 (100 nM), 64.8%. In addition, the normalised viability in the test with HCC1937 [13] (100 nM) came out at 47.4%; with HDQ-P1 [14] (3 nM), 94.5%; with Hs578T [15] (100 nM), 32.5%; in the test with MDA-MB-231 [16] (100 nM), 26.8%; with MDA-MB-436 (100 nM), 68.2%; in the test on MDA-MB-453 [25], 87.9%. Further, the values for the normalised viability in the test on MDA-MB-468 [17] (100 nM), in the test with MFM-223 [18] (100 nM) and with SK-BR-3 [19] (100 nM) were 37%, 24.5% and 21.9%, respectively.

Regarding `COc1ccccc1S(=O)(=O)Nc1ccc2c(c1)CN(C)C(=O)N2` [PFI-1], the drug sensitivity score in the test with CAL-51 [20] turned out to be 3.76; with HDQ-P1 [21] it was 0; in the test with MDA-MB-453 [22] it was 4.63; in the test on SK-BR-3 [23] it was 0.

For `NS(=O)(=O)OC[C@@H]1C[C@@H](n2ccc3c(N[C@H]4CCc5ccccc54)ncnc32)C[C@@H]1O` [Pevonedistat], the drug sensitivity score in the test with CAL-51 [20] turned out to be 22.8; with HDQ-P1 [21], 2.51; in the test with MDA-MB-453 [22] it was 3.83; in the test on SK-BR-3 [23], 21.7.
